Source: patent US9649317B2, “Heterocyclic compounds and their use for the treatment of neurodegenerative tauopathies” (The Trustees of The University of Pennsylvania, priority 2012, dated 2017)
“Also recorded” adds a separate entry of the source. Like-named read-outs stand apart in the source and are kept apart here.

What was measured:
[1] = test system: detyrosinated α-tubulin (GluTub); assay: Detyrosinated α-tubulin (GluTub) in the cell-based studies; settings: data not shown
[2] = test system: acetyl-tubulin (AcTub) in HEK/QBI 293 cells; assay: Microtubule stabilization assay: acetyl-tubulin (AcTub) ELISA after compound treatment; type: cell-based; settings: for change in acetyl-tubulin (AcTub), in words: relative to vehicle-treated cells (FIG. 1, Tables 5 and 6); for AcTub elevation compared with epoD: at 100 nM (FIG. 1)
Description: (§1) The MT-stabilizing properties of triazolopyrimidines was investigated in a cell-free MT-polymerization assay, as well in a cell-based assay (HEK/QBI 293 cells) that measures changes in acetyl-tubulin (AcTub), a biomarker of stable MTs. (Laferriere, N.; MacRae, T.; Brown, D. Tubulin synthesis and assembly in differentiating neurons. Biochemistry and Cell Biology 1997, 75, 103-117; Black, M.; Baas, P.; Humphries, S. Dynamics of alpha-tubulin deacetylation in intact neurons. J Neurosci 1989, 9, 358).
as §1, with “properties of additional triazolopyrimidines, phenylpyrimidines, and pyridazines was investigated” for “properties of triazolopyrimidines was investigated”, “well in the aforementioned cell-based assay” for “well in a cell-based assay”, “of stable MTs (Laferriere, N.;” for “of stable MTs. (Laferriere, N.;”
The HEK293 cell subclone, QBI293, was maintained in DMEM supplemented with 10% fetal calf or bovine serum, 1% penicillin/streptomycin antibiotic solution and 1% glutamine at 37° C. in 5% CO2. Cells were plated into 6-well plates at a density of 800,000 cells/well. […] Test compounds were added at multiple concentrations to the test wells and incubated for 4 h. Subsequently, the media was removed and the cells were washed with 1 ml of ice-cold phosphate-buffered saline (PBS). After removal of PBS, 0.2 ml of ice-cold RIPA (0.5% sodium deoxycholate, 0.1% SDS, 1% NP-40, 5 mM EDTA, pH 8.0) containing protease inhibitor mix (1 μg/ml each of pepstatin, leupeptin, TLCK, TPCK and trypsin inhibitor), 1 mM PMSF and 1 μM trichostatin A was added to the wells. The wells were then scraped using a cell scraper and pipetted into 1.5 ml microfuge tubes. The tubes were sonicated with a handheld sonicator at 20× on a power setting of 2, followed by centrifugation for 30 min at 15,000 rpm at 4° C. Supernatants were removed and quantified for protein concentration and the acetyl-tubulin levels were determined using an ELISA as described.
384-well plates were coated with 12G10α-tubulin antibody (Developmental Studies Hybridoma Bank at the University of Iowa; 10 μg/ml) in 30 μl of cold 0.1 M bicarbonate buffer. After overnight incubation at 4° C., the plates were washed with cold PBS, followed by the addition of Block-Ace solution and overnight incubation at 4° C. The blocking solution was removed and 10 μl of EC buffer (0.02 M sodium phosphate, pH 7.0, 2 mM EDTA, 0.4 M NaCl, 0.2% bovine serum albumin, 0.05% CHAPS, 0.4% BlockAce and 0.05% NaN3) was added to each well. Cell culture supernatants were diluted in EC buffer to final protein concentrations of 9, 3, 1.5 and 0.5 μg/30 μl, and 30 μl of each were added to wells in duplicate and plates were subsequently sealed. After overnight incubation at 4° C., the plates were aspirated and washed with cold PBS containing 0.05% Tween-20 and 0.05% thimerisol (PBS-Tween buffer), followed by addition of 30 μl/well of HRP-conjugated acetyl-tubulin antibody (6-11B-1 antibody from Sigma-Aldrich) that was prepared with a Peroxidase Labeling Kit following the manufacturer's instructions that was subsequently diluted 1:1000 in C buffer (0.02 M sodium phosphate, pH 7.0, 2 mM EDTA, 0.4 M NaCl, 1% bovine serum albumin and 0.05% thimerisol). The plates were incubated at room temperature for 4 h on a platform rocker, followed by washing with cold PBS-Tween buffer. Peroxidase substrate solution (30 μl) was added and the reaction was quenched after 5-10 min by addition of 30 μl of 10% phosphoric acid. Plates were read on a SpectraMax M5 plate reader at 450 nm. Because an acetyl-tubulin standard is not available, all data were normalized to a control treatment condition (e.g., no compound addition).

[3] = test system: brain α-tubulin that is acetylated (AcTub); assay: Determination of brain acetyl-tubulin levels; type: in vivo, CD1 mice; settings: wild-type mice, once-daily 1 mg/kg dose, 3 days (FIG. 14)
[4] = Determination of plasma and brain compound concentrations; type: in vivo; settings: mouse, 1 hour after a 5 mg/kg intraperitoneal injection
Protocol: For utility in neurodegenerative diseases, MT-stabilizing compounds must cross the blood-brain barrier (BBB) and enter the brain. As summarized in Table 7, a number of examples show concentrations in the brain that exceed 0.5 μM an hour after administration of a 5 mg/kg dose, with brain-to-plasma concentration ratios of ˜0.3 or higher.
Mouse brains were homogenized in 10 mM ammonium acetate, pH 5.7 (1:2; w/v) using a handheld sonic homogenizer. Mouse plasma was obtained from blood that was collected into a 1.5 ml tube containing 0.5M EDTA solution and which was centrifuged for 10 minutes at 4500 g at 4° C. Aliquots (50 μl) of brain homogenates (50% w/v in 100 mM NH4OAC pH 5.75) or plasma were mixed with 0.2 ml of acetonitrile, centrifuged at 15,000 g, and the resulting supernatant was used for subsequent LC-MS/MS analysis. The LC-MS/MS system was comprised of an Aquity UPLC and a TQ MS that was controlled using MassLynx software (Waters Corporation, Milford, Mass., USA). Compounds were detected using multiple reaction monitoring (MRM) of their specific collision-induced ion transitions. Samples were separated on an Aquity BEH C18 column (1.7 μm, 2.1×50 mm) at 35° C. Operation was in positive electrospray ionization mode, with mobile phase A of 0.1% (v/v) formic acid, and B of acetonitrile with 0.1% (v/v) formic acid. Injections of 5 μl were separated at a flow rate of 0.6 mL/min using a gradient from 5% to 95% B over two minutes, followed by wash and re-equilibration steps. The MS was operated with a desolvation temperature of 450° C. and a source temperature of 150° C. Desolvation and source nitrogen gas flows were 900 L/hr and 50 L/hr, respectively. Source and MS/MS voltages were optimized for each compound using the MassLynx auto tune utility. To account for possible matrix effects on analytes, standard curves were generated for each compound from brain homogenate and plasma samples that had compound added at 24, 240, 2400 and 24000 nM. The standard curve samples were extracted and analyzed in an identical fashion as the corresponding tissue-derived samples, and peak areas were plotted against concentration and a linear regression curve was used to obtain estimated concentrations of the tissue-derived samples using the peak areas. In all cases, the tissue-derived sample peak areas fell within the linear portion of standard curves that were prepared and analyzed concurrently with the samples.

[5] = test system: AcTub-positive MTs in HEK/QBI293 cells; assay: Acetyl tubulin immunofluorescence; type: cell-based; settings: 4 h incubation
Protocol: The HEK293 cell subclone, QBI293, was plated onto poly-D-lysine-coated glass coverslips at 50,000 cells/ml in DMEM supplemented with 10% fetal calf or bovine serum, 1% penicillin/streptomycin antibiotic solution and 1% glutamine and maintained overnight at 37° C. in 5% CO2. The next day, cells were left untreated or were treated with 100 nM epothilone D, 100 nM CNDR-51533 or 1 μM colchicine. After an additional 4 h of incubation at 37° C. in 5% CO2, cells were washed twice with PBS, and then fixed for 15 min in PBS containing 4% paraformaldehyde. The cells were again washed twice with PBS, and permeabilized with 0.1% Triton X-100 in PBS for 15 min. Following the Triton X-100 treatment, the cells were washed twice in PBS, and treated with PBS containing 3% bovine serum albumin for 1 h. Acetyl-tubulin antibody was subsequently added (1:1000 dilution) and incubated for 1 h. Cells were then washed cells 3×5 min with 0.1% Triton X-100 in PBS, and secondary antibody (goat-anti-mouse labeled with Alexa fluor 488 at 1:1000) was added and allowed to incubate for 1 h. […] Finally, the cells were washed once with PBS, followed by H2O, and the cover slips were mounted onto slides with Fluoromount G. Images were acquired on a microscope equipped for fluorescence detection. […]

[6] = mouse, in vivo; cited from earlier work
[7] = brain, ip, read-out: Brain nM (SD)
[8] = plasma, ip, read-out: Plasma nM (SD)

Row | Compound | change in detyrosinated α-tubulin (GluTub) [1] | change in acetyl-tubulin (AcTub), in words [2] | concentration at 1 h [4, 7] [nM] | Brain/Plasma [4] | concentration at 1 h [4, 8] [nM] | other results
1 | Fc1cc(F)c(-c2c(Cl)nc3ncnn3c2NCC(F)(F)F)c(F)c1 [CNDR-51539, 5-Chloro-N-(2,2,2-trifluoroethyl)-6-(2,4,6-trifluorophenyl)-[1,2,4]triazolo[1,5-a]pyrimidin-7-amine] | significant increases of detyrosinated α-tubulin (GluTub) | dose-dependent elevation in AcTub |  |  |  | 
2 | C[C@H](Nc1nc(-c2cnccn2)nc(Cl)c1-c1c(F)cc(F)cc1F)C(F)(F)F [CNDR-51549, (S)-6-chloro-2-(pyrazin-2-yl)-5-(2,4,6-trifluorophenyl)-N-(1,1,1-trifluoropropan-2-yl)pyrimidin-4-amine] |  |  | 2870 | 0.58 | 4950 | AcTub levels in the brain [3]: increase of AcTub levels in the brains; also recorded: increase in the fraction of brain α-tubulin that is acetylated
3 | COc1cc2c(c(OC)c1OC)-c1ccc(OC)c(=O)cc1[C@@H](NC(C)=O)CC2 [colchicine] |  |  |  |  |  | AcTub immunofluorescence staining ([5]; 1 μM, data not shown): significant loss of AcTub staining
4 | C[C@H](Nc1c(-c2c(F)cc(OCCCN(C)C)cc2F)c(Cl)nc2ncnn12)C(F)(F)F [CNDR-51555, (S)-5-Chloro-6-(4-(3-(dimethylamino)propoxy)-2,6-difluorophenyl)-N-(1,1,1-trifluoropropan-2-yl)-[1,2,4]triazolo[1,5-a]pyrimidin-7-amine] |  |  | 1350 | 0.27 | 4930 | 
5 | C[C@H](Nc1nc(-c2ccccn2)nc(Cl)c1-c1c(F)cc(OCCCN(C)C)cc1F)C(F)(F)F [CNDR-51561, (S)-6-Chloro-5-(4-(3-(dimethylamino)propoxy)-2,6-difluorophenyl)-2-(pyridin-2-yl)-N-(1,1,1-trifluoropropan-2-yl)pyrimidin-4-amine] |  |  | 701 |  | 2120 | Kp at 1 h ([4]; brain/plasma, ip): 0.33
6 | CNCCCOc1cc(F)c(-c2c(Cl)nc3ncnn3c2N[C@@H](C)C(F)(F)F)c(F)c1 [CNDR-51533, (S)-5-Chloro-6-(2,6-difluoro-4-(3-(methylamino)propoxy)phenyl)-N-(1,1,1-trifluoropropan-2-yl)-[1,2,4]triazolo[1,5-a]pyrimidin-7-amine, reference compound] | significant increases of detyrosinated α-tubulin (GluTub) | dose-dependent elevation in AcTub |  |  |  | crossing of the blood-brain barrier (BBB), previously described agents [6]: do not cross the BBB; AcTub immunofluorescence, MT structure ([5]; 100 nM, relative to control cells): large increase in highly organized, AcTub-positive MTs; AcTub elevation compared with epoD [2]: significantly more effective than epoD
7 | (S)-6-Chloro-5-(2,6-difluoro-4-(3-(methylamino)propoxy)phenyl)-2-(pyridin-2-yl)-N-(1,1,1-trifluoropropan-2-yl)pyrimidin-4-amine [CNDR-51562] |  |  |  |  |  | dose of maximal effect (AcTub increase) ([2]; 4 h treatment): 0.1 µM; Fold-Increase in AcTub ([2]; 4 h treatment, at the dose of maximal effect, relative to control): 6.2 fold
8 | CNCCCOc1cc(F)c(-c2c(Cl)nc3ncnn3c2NCC(F)(F)F)c(F)c1 [CNDR-51534, 5-Chloro-6-(2,6-difluoro-4-(3-(methylamino)propoxy)phenyl)-N-(2,2,2-trifluoroethyl)-[1,2,4]triazolo[1,5-a]pyrimidin-7-amine] | significant increases of detyrosinated α-tubulin (GluTub) | dose-dependent elevation in AcTub |  |  |  | AcTub elevation compared with epoD [2]: significantly more effective than epoD
9 | C[C@H](Nc1nc(-c2ccccn2)nc(Cl)c1-c1c(F)cc(F)cc1F)C(F)(F)F [CNDR-51552, (S)-6-chloro-2-(pyridin-2-yl)-5-(2,4,6-trifluorophenyl)-N-(1,1,1-trifluoropropan-2-yl)pyrimidin-4-amine] |  |  | 1480 | 0.34 | 4320 | 
